From PubChem BioAssay AID2060897 (Molecular Pharmacology Branch, DTP, NCI, 2025)
Values joined by “and” are separate entries in the source; they are usually repeats but may differ in a detail not shown here. Equal entries are not always repeated.

Test system: 966289-007-R4-J1-PDC complex spheroid viability
Experiment: Anticancer human tumor 966289-007-R4-J1-PDC patient-derived pancreatic adenocarcinoma cell line growth inhibition [RAS]
Conditions: for viability, T/C: stronger effect = lower value
Excerpt: RAS pathway inhibitors in Combinations in Complex Spheroids
A high-throughput screen of multi-cell type tumor spheroids was designed to identify active combinations of RAS pathway inhibitors and targeted small molecules. Complex spheroids include a stromal component modeled by human endothelial cells (HUVEC) and fibroblasts modeled by human mesenchymal stem cells (MSCs). The concentration ranges selected for each drug and investigational agent were based upon clinically achievable concentrations if the clinical Cmax of the agent was known.
Compounds. The drugs and investigational agents: abemaciclib (NSC768073), cobimetinib (NSC768068), divarasib (GDC6063, NSC841802), docetaxel (NSC628503), GDC-1971 (RLY-1971, NSC841576), gemcitabine (NSC613327), inavolisib (NSC800729), ipatasertib (NSC767898), KB-0742 (NSC834161), MRTX-1133 (NSC836407), osimertinib (NSC779217), RMC-4630 (NSC839698), RMC-6236 (NSC851965), RMC-6291 (NSC852671), Ro-3306 (NSC812927), sapanisertib (NSC764658), SN-38 (NSC673596), staurosporine (NSC755774), SY5609 (NSC837396), and tovorafenib (DAY101, NSC766906), were obtained from the National Cancer Institute (NCI) Developmental Therapeutics Program Chemical Repository. The FDA-approved anticancer drug set is available from the NCI Developmental Therapeutics Program. […] The stock solutions were prepared in dimethyl sulfoxide (DMSO, Sigma-Aldrich, St. Louis, MO, cat. D2650) at 800-fold the tested concentration and stored at -70 degrees C prior to their use. All drugs and investigational agents were tested over a range starting from a high concentration at or near the clinical Cmax and decreasing in half-log increments. If the clinical Cmax for an agent had not been determined, the highest concentration tested was 10 microM.
Cell Culture. All cells were maintained in an incubator at 37 degrees C and 5% CO2 with 95% humidity. The PDC lines were cultured according to standard operating procedures established by the NCI PDMR. All PDCs were thawed and cultured in Matrigel-coated flasks prepared with a working solution of 1X Ham's F-12 nutrient mix, without supplementation (Invitrogen, Waltham, MA, cat. 11765054), 100 U/mL penicillin-streptomycin (Invitrogen, cat. 15140122), and 2.5% Matrigel (Corning Inc., Corning, NY, cat. 354248) for the first three passages. The 362531-283-R-J2-PDC and 782815-120-R-J1-PDC lines were cultured in 6C/Colon 1B media, which includes advanced DMEM/F-12 (Thermo Fisher Scientific, cat. 12634028), 10 mM HEPES (Thermo Fisher Scientific, cat. 15630080), 1X GlutaMAX supplement (Thermo Fisher Scientific, cat. 35050061), 0.1 mg/mL primocin (InvivoGen, San Diego, CA, cat. ant-pm-2), 10% defined fetal bovine serum, heat inactivated (HyClone Laboratories Inc., Logan, UT, cat. SH30070.03HI), 50% L-WRN conditioned media (ATCC, cat. CRL-3276), 1.25 mM N-Acetyl-L-cysteine (Sigma-Aldrich, cat. A9165), 10 mM nicotinamide (Sigma-Aldrich, cat. N0636), 1X B-27 supplement (Thermo Fisher Scientific, cat. 17504044), 1X N-2 supplement (Thermo Fisher Scientific, cat. 17502048), 50 ng/mL human EGF (Thermo Fisher Scientific, cat. PHG0311), and 10 microM Y-27632 dihydrochloride (Tocris Bioscience, cat. 1254). The K12877-001-R-J1-PDC line was cultured in 6I media, which includes all 6C/Colon 1B media plus 10 ng/mL human FGF-10 (PeproTech, cat. 100-26), 1 ng/mL human FGF-2 (PeproTech, cat. 100-18B), 1 µM prostaglandin E2 (Tocris Bioscience, cat. 2296), […] hydrocortisone (Sigma-Aldrich, cat. H4001), and […] bovine insulin (Sigma-Aldrich, cat. I6634). The K86415-001-R-J1-PDC line was cultured in 6D media, which includes all 6C/Colon 1B media components minus the L-WRN conditioned media. The 485176-168-R4-J1-PDC was cultured in PANC media, which includes all 6C/Colon 1B media plus 100 ng/mL human FGF-10 (PeproTech, cat. 100-26), 500 nM SB-431542 (Selleckchem, cat. S1067), and 10 nM gastrin (Tocris Bioscience, cat. 3006). […]

[1] = curve of first compound, second compound 0.000949 µM
[2] = curve of first compound, second compound 0.003 µM
[3] = curve of first compound, second compound 0.00949 µM
[4] = curve of first compound, second compound 0.03 µM
[5] = curve of first compound, second compound 0.0949 µM
[6] = curve of first compound, second compound 0.3 µM
[7] = second compound 0.000949 µM, first compound 0.0316 µM
[8] = second compound 0.000949 µM, first compound 0.1 µM
[9] = second compound 0.000949 µM, first compound 0.316 µM
[10] = second compound 0.000949 µM, first compound 1 µM
[11] = second compound 0.003 µM, first compound 0.0316 µM
[12] = second compound 0.003 µM, first compound 0.1 µM
[13] = second compound 0.003 µM, first compound 0.316 µM
[14] = second compound 0.003 µM, first compound 1 µM
[15] = second compound 0.00949 µM, first compound 0.0316 µM
[16] = second compound 0.00949 µM, first compound 0.1 µM
[17] = second compound 0.00949 µM, first compound 0.316 µM
[18] = second compound 0.00949 µM, first compound 1 µM
[19] = second compound 0.03 µM, first compound 0.0316 µM
[20] = second compound 0.03 µM, first compound 0.1 µM
[21] = second compound 0.03 µM, first compound 0.316 µM
[22] = second compound 0.03 µM, first compound 1 µM
[23] = second compound 0.0949 µM, first compound 0.0316 µM
[24] = second compound 0.0949 µM, first compound 0.1 µM
[25] = second compound 0.0949 µM, first compound 0.316 µM
[26] = second compound 0.0949 µM, first compound 1 µM
[27] = second compound 0.3 µM, first compound 0.0316 µM
[28] = second compound 0.3 µM, first compound 0.1 µM
[29] = second compound 0.3 µM, first compound 0.316 µM
[30] = second compound 0.3 µM, first compound 1 µM
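Also: spheroids exposed to agents for one week before readout.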
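For viability, T/C in this document: percent viability relative to DMSO vehicle control wells as 100%.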

In the case of C[C@@H](NC(=O)c1ncnc(N)c1Cl)c1ncc(C(=O)Nc2cc(C(F)(F)F)c(Cl)cn2)s1, the viability, T/C (compound 0.0316 µM) is reported as 106% [middle of 4 runs], the viability, T/C (compound 10 µM) is reported as 99.5% [middle of 4 runs] and the IC50 (curve of compound) is reported as over 10 µM.
For O=C(c1ccc(F)c(F)c1Nc1ccc(I)cc1F)N1CC(O)([C@@H]2CCCCN2)C1, the viability, T/C (compound 0.00316 µM) was 90.5% [middle of 4 runs], the viability, T/C (compound 0.01 µM) was 97.5% [middle of 4 runs] and the viability, T/C (compound 0.0316 µM) was 90.4% [middle of 4 runs]. For the same compound, the viability, T/C (compound 0.1 µM) was 75.8% [middle of 4 runs] and the viability, T/C (compound 0.316 µM) was 68.9% [middle of 4 runs].
NC1c2ccccc2OC12CCN(c1cnc3c(N4CCCc5ncccc54)n[nH]c3n1)CC2 (centres undefined) was tested, and the viability, T/C (compound 0.1 µM) was 92.9% [middle of 4 runs], the viability, T/C (compound 0.316 µM) was 107% [middle of 4 runs] and the viability, T/C (compound 1 µM) was 116% and 63.2% and 101% (2×). For the same compound, the viability, T/C (compound 10 µM) was 99.6% [middle of 4 runs] and the IC50 (curve of compound) was over 10 µM.
Work on C=CC(=O)N1CCN(c2nc(OCC3CCCN3C)nc3c(F)c(-c4nc(N)cc(C)c4C(F)(F)F)c(Cl)cc23)C(C)C1 (centres undefined) + CCn1c(-c2cc(N3CCN(C)CC3)cnc2C(C)OC)c2c3cc(ccc31)-c1csc(n1)CC(NC(=O)C1CC1C)C(=O)N1CCCC(N1)C(=O)OCC(C)(C)C2 yielded an IC50 [1] of over 1 µM, an IC50 [2] of over 1 µM and an IC50 [3] of over 1 µM. It also gave an IC50 [4] of over 1 µM, an IC50 [5] of over 1 µM and an IC50 [6] of over 1 µM. For the same compound, the viability, T/C (second compound 0.000949 µM, first compound 0.00316 µM) was 131%, the viability, T/C (second compound 0.000949 µM, first compound 0.01 µM) was 119% and the viability, T/C [7] was 138%. For the same compound, the viability, T/C [8] was 69.5%, the viability, T/C [9] was 77.9% and the viability, T/C [10] was 94.2%. It also gave a viability, T/C (second compound 0.003 µM, first compound 0.00316 µM) of 115%, a viability, T/C (second compound 0.003 µM, first compound 0.01 µM) of 138% and a viability, T/C [11] of 83.6%. For the same compound, the viability, T/C [12] was 78.6%, the viability, T/C [13] was 85.3% and the viability, T/C [14] was 86.1%. For the same compound, the viability, T/C (second compound 0.00949 µM, first compound 0.00316 µM) was 101%, the viability, T/C (second compound 0.00949 µM, first compound 0.01 µM) was 111% and the viability, T/C [15] was 105%. The viability, T/C [16] was 74.1%, the viability, T/C [17] was 90.3% and the viability, T/C [18] was 94.4%. For the same compound, the viability, T/C (second compound 0.03 µM, first compound 0.00316 µM) was 80.2%, the viability, T/C (second compound 0.03 µM, first compound 0.01 µM) was 124% and the viability, T/C [19] was 108%. The viability, T/C [20] was 82%, the viability, T/C [21] was 110% and the viability, T/C [22] was 87.7%. It also gave a viability, T/C (second compound 0.0949 µM, first compound 0.00316 µM) of 102%, a viability, T/C (second compound 0.0949 µM, first compound 0.01 µM) of 128% and a viability, T/C [23] of 98.3%. The viability, T/C [24] was 104%, the viability, T/C [25] was 125% and the viability, T/C [26] was 103%. It also gave a viability, T/C (second compound 0.3 µM, first compound 0.00316 µM) of 79%, a viability, T/C (second compound 0.3 µM, first compound 0.01 µM) of 137% and a viability, T/C [27] of 128%. It also gave a viability, T/C [28] of 97.8%, a viability, T/C [29] of 135% and a viability, T/C [30] of 106%.
With NC1c2ccccc2OC12CCN(c1cnc3c(N4CCCc5ncccc54)n[nH]c3n1)CC2 (centres undefined) + CCn1c(-c2cc(N3CCN(C)CC3)cnc2C(C)OC)c2c3cc(ccc31)-c1csc(n1)CC(NC(=O)C1CC1C)C(=O)N1CCCC(N1)C(=O)OCC(C)(C)C2 the IC50 [1] was over 10 µM, the IC50 [2] was over 10 µM and the IC50 [3] was over 10 µM. The IC50 [4] was over 10 µM, the IC50 [5] was over 10 µM and the IC50 [6] was over 10 µM. The viability, T/C [7] was 88.7%, the viability, T/C [8] was 84% and the viability, T/C [9] was 117%. The viability, T/C [10] was 104%, the viability, T/C (second compound 0.000949 µM, first compound 3.16 µM) was 123% and the viability, T/C (second compound 0.000949 µM, first compound 10 µM) was 85%. It also gave a viability, T/C [11] of 121%, a viability, T/C [12] of 93% and a viability, T/C [13] of 88.9%. For the same compound, the viability, T/C [14] was 95.2%, the viability, T/C (second compound 0.003 µM, first compound 3.16 µM) was 105% and the viability, T/C (second compound 0.003 µM, first compound 10 µM) was 109%. For the same compound, the viability, T/C [15] was 106%, the viability, T/C [16] was 103% and the viability, T/C [17] was 88.5%. The viability, T/C [18] was 111%, the viability, T/C (second compound 0.00949 µM, first compound 3.16 µM) was 97.1% and the viability, T/C (second compound 0.00949 µM, first compound 10 µM) was 89.9%. It also gave a viability, T/C [19] of 78.9%, a viability, T/C [20] of 88.8% and a viability, T/C [21] of 103%. The viability, T/C [22] was 105%, the viability, T/C (second compound 0.03 µM, first compound 3.16 µM) was 119% and the viability, T/C (second compound 0.03 µM, first compound 10 µM) was 69.7%. For the same compound, the viability, T/C [23] was 103%, the viability, T/C [24] was 122% and the viability, T/C [25] was 105%. For the same compound, the viability, T/C [26] was 117%, the viability, T/C (second compound 0.0949 µM, first compound 3.16 µM) was 92.8% and the viability, T/C (second compound 0.0949 µM, first compound 10 µM) was 88.4%. It also gave a viability, T/C [27] of 103%, a viability, T/C [28] of 88.1% and a viability, T/C [29] of 96.8%. The viability, T/C [30] was 97.3%, the viability, T/C (second compound 0.3 µM, first compound 3.16 µM) was 91.2% and the viability, T/C (second compound 0.3 µM, first compound 10 µM) was 137%.
With CCn1c(-c2cccnc2C(C)OC)c2c3cc(ccc31)N1CCOC(CC(NC(=O)C(C(C)C)N(C)C(=O)C3(F)CCN(C(=O)C#CC(C)(C)N(C)C)CC3)C(=O)N3CCCC(N3)C(=O)OCC(C)(C)C2)C1 (centres undefined) the viability, T/C (compound 0.0949 µM) was 83.6% [middle of 8 runs] and the IC50 (compound alone, run of 05/20/2024) was over 0.3 µM.
